Data: patent US20230203023A1, “SALT AND CRYSTAL FORMS OF GLP-1R AGONISTS AND USES THEREOF” (QILU REGOR THERAPEUTICS INC., priority 2020, published 2023)

Key:
[1] = Solid stability evaluation (I/II), XRPD and HPLC; format: physicochemical; settings: for Observation / Purity (area %): listed as Freeform
Protocol: To evaluate the physical and chemical stability of 1:1 Compound I Tris Salt (Form A) and amorphous free form, samples were stored under the conditions of 60° C. for 1 day and 25° C./60% RH or 40° C./75% RH for 1 week, respectively.
To evaluate the physical and chemical stability of 1:1 Compound II Citrate Salt (Form A), 1:1 Compound II Tris Salt (Form B) and freeform, samples were stored under the conditions of 60° C. for 1 day and 25° C./60% RH or 40° C./75% RH for 1 week, respectively.

[2] = Kinetic solubility test in water and bio-relevant media (SGF, FaSSIF, FeSSIF); format: physicochemical; settings: for S: solubility: 37° C.; for Purity (%), area percentage of API: for reference only (suspensions); for FC: form change: residual solids by XRPD; for pH: supernatant
Protocol: (§1) Weigh 100 mg of sodium chloride and 50 mg of Triton X-100 into a 50-mL volumetric flask. Add appropriate volume of purified water and sonicate until all solids are completely dissolved. Add about 68 μL of 12 M HCl and sufficient purified water closely to the target volume and adjust to pH 1.8. Dilute to volume with purified water, mix well and check the pH with a pH meter.
as §1, with “170” for “100”, “phosphate monobasic, 21” for “chloride and 50”, “sodium hydroxide and 310 mg of sodium chloride, 110 mg of SIF powder” for “Triton X-100”, “Add” for “Add about 68 μL of 12 M HCl and”, “6.5.” for “1.8.”
Weigh 0.41 mL of glacial acetic acid, 202 mg of sodium hydroxide and 594 mg of sodium chloride, 560 mg of SIF powder into a 50-mL volumetric flask. Add appropriate volume of purified water to dissolve the solids. Then add sufficient purified water closely to the target volume and adjust to pH 5.0. Dilute to volume with purified water, mix well and check the pH with a pH meter.
Kinetic solubility was evaluated in water and three bio-relevant media (SGF, FaSSIF and FeSSIF) for 1/4/24 hours. 3-4 mg of solids were suspended in 3 mL each medium (solid loading: 1 mg/mL, calculated using freeform) to get a suspension, followed by rolling (25 rpm) at 37° C. for 1/4/24 hours. At each time point, ˜1.0 mL of suspension was sampled out for centrifugation (12000 rpm, 2 min) and filtration through 0.45 μm PTFE membrane to obtain supernatant for HPLC and pH tests, the residual solids were analyzed by XRPD.
Kinetic solubility was evaluated for 1:1 Compound II Citrate Salt (Form A), 1:1 Compound II Tris Salt (Form B), and freeform of Compound II in water and three bio-relevant media (SGF, FaSSIF and FeSSIF) for 1/4/24 hours. 3-4 mg of solids were suspended in 3 mL each medium (solid loading:
1 mg/mL, calculated using freeform) to get a suspension, followed by rolling (25 rpm) at 37° C. for 1/4/24 hours. At each time point, ˜1.0 mL of suspension was sampled out for centrifugation (12000 rpm, 2 min) and filtration through 0.45 μm PTFE membrane to obtain supernatant for HPLC and pH tests, the residual solids were analyzed by XRPD. […] The purity results were for reference only since the samples were all suspensions.

[3] = FaSSIF, 1 hour, listed as Freeform
[4] = FaSSIF, 4 hours, listed as Freeform
[5] = FaSSIF, 24 hours, listed as Freeform
[6] = FeSSIF, 1 hour, listed as Freeform
[7] = FeSSIF, 4 hours, listed as Freeform
[8] = FeSSIF, 24 hours, listed as Freeform
[9] = H2O, 1 hour, listed as Freeform
[10] = H2O, 4 hours, listed as Freeform
[11] = H2O, 24 hours, listed as Freeform
[12] = SGF, 1 hour, listed as Freeform
[13] = SGF, 4 hours, listed as Freeform
[14] = SGF, 24 hours, listed as Freeform

## N#Cc1ccc(COc2cccc(C3=CCN(Cc4nc5ccc(C(=O)O)cc5n4C[C@@H]4CCO4)CC3)n2)c(F)c1 [Compound II, (S)-2-((6-((4-cyano-2-fluorobenzyl)oxy)-3′,6′-dihydro-[2,4′-bipyridin]-1′(2′H)-yl)methyl)-1-(oxetan-2-ylmethyl)-1H-benzo[d]imidazole-6-carboxylic acid]
[1]; 25° C./60% RH (open), 1 week
  Form change: No
  Observation: Yellow
  Purity (area %): 94.58 area %
[1]; 40° C./75% RH (open), 1 week
  Form change: No
  Observation: Yellow
  Purity (area %): 92.86 area %
[1]; 60° C. (capped), 1 day
  Form change: No
  Observation: Yellow
  Purity (area %): 88.94 area %
[1]; Initial
  Form change: No
  Observation: Yellow
  Purity (area %): 95.27 area %
[2]; [3]
  S: solubility: 20 µg/mL
  Purity (%), area percentage of API: 85.92%
  pH: 6.5
[2]; [4]
  S: solubility: 20 µg/mL
  Purity (%), area percentage of API: 72.84%
  FC: form change: No
  pH: 6.5
[2]; [5]
  S: solubility: 20 µg/mL
  Purity (%), area percentage of API: 66.76%
  pH: 6.4
[2]; [6]
  S: solubility: 30 µg/mL
  Purity (%), area percentage of API: 71.16%
  pH: 5.0
[2]; [7]
  S: solubility: 20 µg/mL
  Purity (%), area percentage of API: 47.29%
  pH: 5.1
[2]; [8]
  S: solubility: 40 µg/mL
  Purity (%), area percentage of API: 37.65%
  FC: form change: No
  pH: 5.0
[2]; [9]
  S: solubility: 30 µg/mL
  Purity (%), area percentage of API: 93.84%
  pH: 6.6
[2]; [10]
  S: solubility: 30 µg/mL
  Purity (%), area percentage of API: 86.44%
  FC: form change: No
  pH: 7.0
[2]; [11]
  S: solubility: 40 µg/mL
  Purity (%), area percentage of API: 89.76%
  FC: form change: No
  pH: 7.3
[2]; [12]
  S: solubility: 200 µg/mL
  Purity (%), area percentage of API: 94.17%
  FC: form change: No
[2]; [13]
  S: solubility: 200 µg/mL
  Purity (%), area percentage of API: 81.32%
  pH: 1.9
[2]; [14]
  S: solubility: 100 µg/mL
  Purity (%), area percentage of API: 76.04%
  pH: 1.8
[2]; FaSSIF, 1 hour
  FC: form change: No
[2]; FaSSIF, 24 hours
  FC: form change: Yes
[2]; FeSSIF, 1 hour
  FC: form change: No
[2]; FeSSIF, 4 hours
  FC: form change: Yes
[2]; H2O, 1 hour
  FC: form change: No
[2]; SGF, 4 hours
  FC: form change: Yes
[2]; SGF, 24 hours
  FC: form change: Yes
[2]; SGF, 1 hour
  pH: 1.9
